Source: ChEMBL document CHEMBL1122010 (J Med Chem, 1982)

What was measured:
L1210 [1] = assay: Percent increase in life span was measured against L1210 murine leukemia cells at the dose of 5 mg/kg; assay type: functional; conditions: Mus musculus
Dihydrofolate reductase = biological target: T1, Dihydrofolate reductase (Mus musculus, UniProt P00375); assay: Inhibition of Dihydrofolate reductase in mouse L1210 cells; assay type: cell-based
T1 sequence (P00375 whole entry): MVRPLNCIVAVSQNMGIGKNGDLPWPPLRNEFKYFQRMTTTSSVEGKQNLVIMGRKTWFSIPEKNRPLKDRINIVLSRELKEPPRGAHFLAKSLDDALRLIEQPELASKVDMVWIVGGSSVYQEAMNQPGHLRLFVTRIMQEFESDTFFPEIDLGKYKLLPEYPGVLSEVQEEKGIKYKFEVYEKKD

HEp-2 = assay: Effective dose against H.Ep.-2 cells; assay type: functional; conditions: Homo sapiens, read-out: ED50 (the source's name)
L1210 [2] = assay: Km value was measured as influx in L1210 cell membrane transport.; assay type: functional, cell-based; conditions: Mus musculus
[3] = The compound was compared with MTX with respect to cytotoxicity toward H.Ep.-2 cells.; assay type: functional
L1210 [4] = assay: Ki value was measured as influx in L1210 cell membrane transport.; assay type: functional, cell-based, Mus musculus
L1210 [5] = assay: Percent increase in life span was measured against L1210 murine leukemia cells at the dose of 25 mg/kg; assay type: functional; conditions: Mus musculus
L1210 [6] = assay: Percent increase in life span was measured against L1210 murine leukemia cells at the dose of 200 mg/kg; assay type: functional; conditions: Mus musculus
L1210 [7] = assay: k value was measured as efflux in L1210 cell membrane transport.; assay type: functional, Mus musculus
L1210 [8] = assay: Percent increase in life span was measured against L1210 murine leukemia cells at the dose of 1.3 mg/kg; assay type: functional; conditions: Mus musculus
L1210 [9] = assay: Percent increase in life span was measured against L1210 murine leukemia cells at the dose of 180 mg/kg; assay type: functional; conditions: Mus musculus
L1210 [10] = assay: Percent increase in life span was measured against L1210 murine leukemia cells at the dose of 50 mg/kg; assay type: functional; conditions: Mus musculus
L1210 [11] = assay: Percent increase in life span was measured against L1210 murine leukemia cells at the dose of 100 mg/kg; assay type: functional; conditions: Mus musculus
L1210 [12] = assay: Percent increase in life span was measured against L1210 murine leukemia cells at the dose of 2.5 mg/kg; assay type: functional; conditions: Mus musculus

Structure (SMILES) | ILS at 5 mg/kg (L1210 [1]) | Ki (Dihydrofolate reductase) | EC50 (HEp-2) | Km (L1210 [2]) | MTX ratio [3] | Ki (L1210 [4]) | ILS at 25 mg/kg (L1210 [5]) | ILS at 200 mg/kg (L1210 [6]) | k (L1210 [7]) | ILS at 1.3 mg/kg (L1210 [8]) | ILS at 180 mg/kg (L1210 [9]) | ILS at 50 mg/kg (L1210 [10]) | ILS at 100 mg/kg (L1210 [11]) | ILS at 2.5 mg/kg (L1210 [12])
CN(Cc1cnc2nc(N)nc(N)c2n1)c1ccc(C(=O)NC(CCC(=O)N[C@@H](CC(=O)O)C(=O)O)C(=O)O)cc1 (stereo partly drawn) | 65% | 0.0028 nM | 330 nM | > 300 µM | 140 |  |  |  |  |  |  |  |  | 
CN(Cc1cnc2nc(N)nc(N)c2n1)c1ccc(C(=O)NC(CCC(=O)O)C(=O)N[C@@H](CCC(=O)O)C(=O)O)cc1 (stereo partly drawn) |  | 170 nM | 180 nM |  | 75 | 61000 nM | 67% |  |  |  |  |  |  | 
CCCCCNC(=O)CCC(NC(=O)c1ccc(N(C)Cc2cnc3nc(N)nc(N)c3n2)cc1)C(=O)O (stereo not drawn) |  | 0.0035 nM | 55 nM | 16.9 µM | 23 | 16800 nM |  | 55% | 0.26 min⁻¹ |  |  |  |  | 
CN(Cc1cnc2nc(N)nc(N)c2n1)c1ccc(C(=O)N[C@@H](CCC(=O)O)C(=O)O)cc1 [METHOTREXATE] |  |  |  | 3.3 µM |  | 3500 nM |  |  | 0.23 min⁻¹ | 48% |  |  |  | 
CN(Cc1cnc2nc(N)nc(N)c2n1)c1ccc(C(=O)NC(CCC(N)=O)C(=O)O)cc1 (stereo not drawn) |  | 0.0027 nM | 28 nM | 9.4 µM | 12 | 8400 nM |  |  | 0.15 min⁻¹ |  | 58% |  |  | 
CN(Cc1cnc2nc(N)nc(N)c2n1)c1ccc(C(=O)NC(CCC(=O)O)C(=O)N[C@@H](CC(=O)O)C(=O)O)cc1 (stereo partly drawn) |  | 208 nM | 520 nM |  | 217 | 146000 nM | 47% |  |  |  |  |  |  | 
CN(Cc1cnc2nc(N)nc(N)c2n1)c1ccc(C(=O)NC(CCC(=O)O)C(=O)NCC(=O)O)cc1 (stereo not drawn) |  | 208 nM | 590 nM |  | 370 | 66600 nM |  |  |  |  |  | 41% |  | 
CN(Cc1cnc2nc(N)nc(N)c2n1)c1ccc(C(=O)NC(CCC(=O)O)C(N)=O)cc1 (stereo not drawn) |  | 460 nM | 610 nM |  | 250 |  | 34% |  |  |  |  |  |  | 
CN(C)C(=O)CCC(NC(=O)c1ccc(N(C)Cc2cnc3nc(N)nc(N)c3n2)cc1)C(=O)O (stereo not drawn) |  | 0.0039 nM | 59 nM | 48.4 µM | 25 |  |  |  | 0.26 min⁻¹ |  |  | 44% |  | 
CN(Cc1cnc2nc(N)nc(N)c2n1)c1ccc(C(=O)NC(CCC(=O)NCc2ccccc2)C(=O)O)cc1 (stereo not drawn) |  | 0.0036 nM | 210 nM | 3.6 µM | 88 | 3800 nM |  |  | 0.19 min⁻¹ |  |  |  | 33% | 
CN(Cc1cnc2nc(N)nc(N)c2n1)c1ccc(C(=O)NC(CCC(=O)N[C@@H](CCC(=O)O)C(=O)O)C(=O)O)cc1 (stereo partly drawn) |  | 0.0037 nM | 5.2 nM | 49.3 µM | 2.2 |  |  |  | 0.22 min⁻¹ |  |  |  |  | 65%
CN(Cc1cnc2nc(N)nc(N)c2n1)c1ccc(C(=O)NC(CCC(=O)NCC(=O)O)C(=O)O)cc1 (stereo not drawn) | 74% | 0.0029 nM | 5.9 nM | 3.9 µM | 2.5 |  |  |  | 2.1 min⁻¹ |  |  |  |  | 
CNC(=O)CCC(NC(=O)c1ccc(N(C)Cc2cnc3nc(N)nc(N)c3n2)cc1)C(=O)O (stereo not drawn) |  | 0.0027 nM | 27 nM | 27.6 µM | 11 |  |  |  | 0.21 min⁻¹ |  |  |  | 58% | 
